Values of other authors in patent US20250241850A1, “BIOADHESIVE NASAL SPRAY COMPOSITION, PREPARATION METHOD AND USE” (Eurofarma Laboratórios S.A., priority 2022, published 2025).
Where a name gives a salt, the structure may show the parent alone.

Settings: in vivo

half-life: 3 to 4 h
Compound: CN1C2CCCC1CC(NC(=O)c1nn(C)c3ccccc13)C2 (stereo not shown) [Granisetron hydrochloride]
